Like-named read-outs stand apart in the source and are kept apart here.
Tests used:
Assay type in all cases: in vivo, C57BL/6 mice
circulating B cells = assay: Flow cytometry of circulating lymphocytes; settings: after Fludara suspension
Description: Whole blood samples were stained with antimouse L3T4/CD4 fluorescein isothiocyanate (FITC) conjugated (Boehringer Mannheim Biochemica) for the detection of CD4^+ lymphocytes, antimouse Ly-2R phycoerythrin (PE) conjugated (Boehringer Mannheim Biochemica) for the detection of CD8a lymphocytes, antimouse Thy-1.2 FITC conjugated (Boehringer Mannheim Biochemica) for the detection of T cells, and antimouse Ly 5 (B220)-PE Monoclonal antibody (Cederlane, Ontario, Canada) for the detection of committed B cell precursors. Samples were analyzed by FACS (Becton Dickinson).

LP-BM5 [1] = assay: Histopathological examination of liver and lymph node sections; settings: in drinking water at 15 mg/mouse
Description: Samples of lymph nodes and liver from three animals in each treatment group were fixed in 4% paraformaldehyde in phosphate-buffered saline, sectioned, and stained with May Grunwald-Giemsa.

LP-BM5 [2] = settings: for Lymphad. (% inh.) / Splenom. (% inh.): about 4 months from infection
Description: LP-BM5 virus was provided by Robert Yetter (Veternas Administration Hospital, Baltimore, MD) and was maintained in a persistently infected SC- 1 cell line as described (Hosier D.E., Yetter R.A., Morse H.C. III, "Functional T lymphocytes are required for a murine retrovirus induced immunodeficiency disease (MAIDS)", J. Exp. Med. 1987; 165:1737-42). C57BL/6 female mice were purchased from Nossan, Milan, Italy and were used at 5 weeks of age. Animals were infected by means of two successive intraperitoneal injections at 24-hr intervals. In the experiments reported three different virus preparations were used.
Mice were housed at 22±1°C with a 12-hr light-dark cycle, 60±5% humidity, and 12 air changes/hr.
(§1) First, the efficacy of 2-fluoro-ara-AMP (F-araAMP, Fludara) in inhibiting murine AIDS (MAIDS), a disease characterized by a lymphoproliferative disorder (lymphadenopathy and splenomegaly), associated with severe immunodeficiency and hypergammaglobulinemia, was evaluated. The disease develops in some strains of mice (C57BL/6) that are infected with a murine leukemia virus mixture termed LP-BM5. In the first preliminary experiments (after about 4 months from infection) LP-BMS infected animals were treated with three different concentrations of F-ara-AMP: 0.065 mg/mouse, 0.325 mg/mouse, 0.650 mg/mouse. The animals of each group were treated intraperitoneally for 3 days a week and for 3 weeks. At the end of the treatment animals were killed and splenomegaly, lymphadenopathy and hypergammaglobulinemia were evaluated.
Infected mice after 7 weeks from infection were treated intraperitoneally with Fludara as follows: • 1. 0.65 mg/mouse once a day for 4 days a week (total dose 7.8 mg/mouse); • 2. 0.65 mg/mouse twice a day for 5 days a week (total dose 19.5 mg/mouse); • 3. […]

mitochondrial DNA = assay: Determination of mitochondrial DNA content; settings: treatment C; vs. untreated mice; 10 weeks after infection; not statistically significant
Description: To detect the mitochondrial DNA a 1544-bp mitochondrial DNA fragment was used as a probe. The mitochondrial DNA probe (kindly provided by Dr. Gadaleta, University of Bari, Italy) spans the region from nucleotide 2578 to 4122 in the complete human mitochondrial DNA. As a result of the high homology between human and mouse mitochondrial DNA this probe recognizes human and mouse sequences equally well (data not shown) (Bibb M.J., Van Etten R.A., Wright C.T., Walberg M.W., Clayton D.A., "Sequence and gene organization of mouse mitochondrial DNA.", Cell 1981; 26:167-80).
Total cellular DNA (4 µg) was digested with the restriction enzyme BamHI (Boehringer, Milan, Italy), analyzed on 0.8% agarose gel, blotted and hybridized with the 1544-bp mitochondrial probe (Brandi G., Casabianca A., Schiavano G.F., et al., "Efficacy and toxicity of long-term administration of 2',3'-dideoxycytidine in the LP-BM5 murine induced immunodeficiency model.", Antiviral Chem. Chemother. 1995; 6:153-61.). […]
Finally, the long term toxicity of Fludara in MAIDS was evaluated. […] Thus, the mitochondrial DNA content in Fludara treated mice was evaluated and only treatment C causes a slight reduction of mitochondrial DNA content (20% vs. untreated mice) although this was not statistically significant. […] The relative amount of mt DNA was determined as described in experimental procedures. […]

LP-BM5 [3] = assay: Serum IgG by ELISA (hypergammaglobulinemia) in LP-BM5 infected mice; settings: about 4 months from infection
Protocol: Serum IgG levels were determined using an ELISA technique. Briefly, polyvinylchloride microtiter plates (Immulon I; Dynatech Laboratories, Chantilly, VA) were coated with goat anti mouse IgG (Sigma) diluted in 0.135 M sodium chloride for ≥ 24 hr. After four washes with 0.1% tween PBS (TPBS), the plates were blocked with 5% bovin serum albumin (BSA) in PBS for 1 h at 37°C and washed again with TPBS. Serial dilutions of mouse serum were added and after incubation for 1 h at 37°C, the plates were washed four times with TPBS, and 100 µl of horseradish (HRP)-conjugated goat anti-mouse IgG (Bio-Rad, Richmond, CA) was added. After 1 h incubation at 37°C, serum levels were determined using a color development solution containing 2.2 mM O-Phenylenediamine. Absorbance was measured at 492 nm on Model 2550 EIA READER (BIO-RAD). Absolute serum IgG concentrations were obtained using known concentrations of standard mouse IgG.
as §1

[4] = 0.065 mg/mouse i.p. 3 days a week for 3 weeks
[5] = 0.325 mg/mouse i.p. 3 days a week for 3 weeks
[6] = 0.650 mg/mouse i.p. 3 days a week for 3 weeks
[7] = group a: 3.0 mg i.p. once a day for 5 consecutive days, 4 weeks, after 7 weeks of infection
[8] = group b: 3.0 mg i.p. twice a day for 5 consecutive days, 4 weeks, after 7 weeks of infection
[9] = group c: 10 mg in drinking water for 5 consecutive days, 4 weeks, after 7 weeks of infection
[10] = group d: 15 mg in drinking water for 5 consecutive days, 4 weeks, after 7 weeks of infection
[11] = regime 1: 0.65 mg once a day 4 days/week for 3 weeks i.p., after 7 weeks of infection
[12] = regime 2: 0.65 mg twice a day 5 days/week for 4 weeks i.p., after 7 weeks of infection
[13] = regime 3: 3.00 mg once a day 5 days/week for 3 weeks i.p., after 7 weeks of infection
[14] = treatment c: after 6 weeks of infection 3 mg F-ara-AMP i.p. twice a day, 5 consecutive days, 4 weeks, at 10 weeks after infection
[15] = treatment g: after 6 weeks of infection 3 mg F-ara-AMP i.p. twice a day 4 weeks, then interrupted, at 14 weeks after infection

Q: How did the “number of circulating B cells after suspension of administration” value (circulating B cells) turn out when `Nc1nc(F)nc2c1ncn2[C@@H]1O[C@H](COP(=O)(O)O)[C@@H](O)[C@@H]1O` [F-ara-AMP, Fludarabine phosphate] was run?
A: returns to normal values

Q: What about the “toxicity in the liver (necrotic cells)” value (LP-BM5 [1]) of the same molecule?
A: some toxicity

Q: What about the “Lymphad. (% inh.)” value (LP-BM5 [2]; [4]) of the same molecule?
A: 20±15%

Q: What about the “Splenom. (% inh.)” value (LP-BM5 [2]; [4]) of the same molecule?
A: 0%

Q: What about the “Lymphad. (% inh.)” value (LP-BM5 [2]; [5]) of the same molecule?
A: 26±9%

Q: What about the “Splenom. (% inh.)” value (LP-BM5 [2]; [5]) of the same molecule?
A: 0%

Q: And the “Lymphad. (% inh.)” value (LP-BM5 [2]; [6])?
A: 49±6%

Q: What about the “Splenom. (% inh.)” value (LP-BM5 [2]; [6]) of the same molecule?
A: 0%

Q: What about the “Lymph node w.” value (LP-BM5 [2]; [7]) of the same molecule?
A: 0.54 ± 0.32 g

Q: And the “Spleen w.” value (LP-BM5 [2]; [7])?
A: 0.50 ± 0.25 g

Q: What about the “Lymph node w.” value (LP-BM5 [2]; [8]) of the same molecule?
A: 0.05 ± 0.02 g

Q: What about the “Spleen w.” value (LP-BM5 [2]; [8]) of the same molecule?
A: 0.22 ± 0.06 g

Q: And the “Lymph node w.” value (LP-BM5 [2]; [9])?
A: 0.16 ± 0.16 g

Q: And the “Spleen w.” value (LP-BM5 [2]; [9])?
A: 0.31 ± 0.09 g

Q: And the “Lymph node w.” value (LP-BM5 [2]; [10])?
A: 0.28 ± 0.23 g

Q: And the “Spleen w.” value (LP-BM5 [2]; [10])?
A: 0.28 ± 0.13 g

Q: What about the “Lymph node w.” value (LP-BM5 [2]; [11]) of the same molecule?
A: 2.63 ± 0.57 g

Q: And the “Spleen weight” value (LP-BM5 [2]; [11])?
A: 1.01 ± 0.24 g

Q: And the “Lymph node w.” value (LP-BM5 [2]; [12])?
A: 2.11 ± 0.54 g

Q: What about the “Spleen weight” value (LP-BM5 [2]; [12]) of the same molecule?
A: 0.87 ± 0.20 g

Q: And the “Lymph node w.” value (LP-BM5 [2]; [13])?
A: 1.75 ± 0.53 g

Q: And the “Spleen weight” value (LP-BM5 [2]; [13])?
A: 0.84 ± 0.17 g

Q: And the “Lymph node w.” value (LP-BM5 [2]; [14])?
A: 0.042 ± 0.018 g

Q: What about the “Spleen w.” value (LP-BM5 [2]; [14]) of the same molecule?
A: 0.130 ± 0.004 g

Q: What about the “Lymph node w.” value (LP-BM5 [2]; [15]) of the same molecule?
A: 0.290 ± 0.05 g

Q: And the “Spleen w.” value (LP-BM5 [2]; [15])?
A: 0.41 ± 0.200 g

Q: And the “reduction of mitochondrial DNA content” value (mitochondrial DNA)?
A: 20%

Q: And the “Hyperg. (% inh.)” value (LP-BM5 [3]; [4])?
A: 12±10%

Q: And the “Hyperg. (% inh.)” value (LP-BM5 [3]; [5])?
A: 16±7%

Q: What about the “Hyperg. (% inh.)” value (LP-BM5 [3]; [6]) of the same molecule?
A: 19±4%

Source: patent EP0987025A1, “Pharmaceitical composition or composition package containing a pyrimidine nucleoside analogue and a purine nucleoside analogue” (priority 1998, dated 2000)
